This assay deals with T1, YES (Homo sapiens, UniProt P07947).
T1 construct: gene YES1

Data on one molecule can be found in publication doi:10.64898/2026.03.17.711623, “Polypharmacology is an enduring and nearly universal property of kinase inhibitors” (bioRxiv, 2026).

The Kd is the concentration at which binding is half-saturated.

T1 sequence (P07947 whole entry): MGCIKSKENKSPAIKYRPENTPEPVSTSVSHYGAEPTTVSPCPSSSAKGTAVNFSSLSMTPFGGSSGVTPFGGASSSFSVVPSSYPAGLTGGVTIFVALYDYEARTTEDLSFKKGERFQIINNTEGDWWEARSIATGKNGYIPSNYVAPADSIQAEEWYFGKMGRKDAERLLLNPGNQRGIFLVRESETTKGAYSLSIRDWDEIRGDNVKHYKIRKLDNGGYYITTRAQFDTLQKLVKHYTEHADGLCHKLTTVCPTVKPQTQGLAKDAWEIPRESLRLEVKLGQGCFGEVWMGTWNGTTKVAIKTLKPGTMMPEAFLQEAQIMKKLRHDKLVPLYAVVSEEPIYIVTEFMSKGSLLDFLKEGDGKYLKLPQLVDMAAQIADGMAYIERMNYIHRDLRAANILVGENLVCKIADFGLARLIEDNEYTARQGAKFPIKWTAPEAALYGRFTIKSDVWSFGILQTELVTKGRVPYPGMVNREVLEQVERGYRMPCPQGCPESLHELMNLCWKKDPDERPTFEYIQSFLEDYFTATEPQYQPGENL

Regarding `Cc1cc(C(=O)Nc2cc(Oc3ccc4nc(NC(=O)C5CC5)cn4n3)ccc2C)n(C)n1` [HMSL12071, TAK-593], the Kd is 423 nM.
